Measured values from patent publication US7160884B2, “1-/2-substituted-1H/-2H-[1,2,3]triazolo[4,5-g]phthalazine-4,9-dione compound, process for the preparation thereof and pharmaceutical composition comprising the same” (EWHA University-Industry Collaboration Foundation, priority 2005, dated 2007).
Where two headings read alike, the source gives them in different places.

Legend:
[1] = test system: human gastric cancer adenocarcinoma cell line; conditions: cited from earlier work
[2] = test system: human colon cancer cell line (Col2); assay: SRB cytotoxicity evaluation, Col2; type: cell-based; conditions: 3 days culture
Procedure: (§1) To verify the cytotoxic effect of the compounds prepared in Examples above, cytotoxicity was induced in cancer cells and SRB (Sulforhodamin B dye-staining) evaluation was conducted.
(§2) Cancer cell lines used herein (NCI, US) was human gastric cancer cell line (SNU-638), human colon cancer cell line (Col2), human fibrosarcoma cell line (HT1080), and human myelogenous leukemia cell line (HL-60).
(§3) Each compound prepared in Examples was dissolved in 10% DMSO. 10 μL of the solution and 190 μL of cell suspension (5×10^4 cells/ml) were placed in standard 96-well plate and cultured in 5% CO2 condition at 37° C. for 3 days. 190 μL of the same cell suspension was placed in at least 16 wells, followed by cultivation at 37° C. for 30 minutes, and used as zero-day control. After cultivation for a predetermined period of time, cells were fixed by adding 50 μL of 50% trichloroacetic acid in each well, followed by incubation at 4° C. for 30 minutes. Cells were washed with water 5 times, dried at room temperature, and stained by adding 100 μL of 1% acetic acid solution containing […] in each well, and then washed with 1% acetic acid after 1 hour and dried in air. 200 μL of 10 mM Tris-base was added in each well and stirred well, thereby dissolving the bound staining agent, followed by measurement of absorbance at 515 nm by using ELISA reader. Viability was determined based on the difference between the zero-day control group and 10% DMSO-treated control group. Viability about ellipticin and doxorubicin were also measured for comparison.

[3] = test system: human myelogenous leukemia cell line (HL-60); assay: SRB cytotoxicity evaluation, HL-60; type: cell-based; conditions: 3 days culture
Procedure: as §1, §2, §3

[4] = test system: human melanoma cell line (SK-MEL-2); assay: SRB cytotoxicity evaluation, SK-MEL-2; type: cell-based; conditions: for IC50: SRB, SK-MEL-2
Procedure: as §1, §3
(§4) Meanwhile, SRB evaluation was also conducted for human lung cancer cell line (A549), human ovarian cancer cell line (SK-OV-3), human melanoma cell line (SK-MEL-2), human central nervous system tumor cell line (XF498), and human colon cancer cell line (HCT15), and the results are shown in TABLE 2.

[5] = test system: human fibrosarcoma cell line (HT1080); assay: SRB cytotoxicity evaluation, HT1080; type: cell-based; conditions: for IC50: SRB, 3 days culture, HT1080
Procedure: as §1, §2, §3

[6] = test system: human gastric cancer cell line (SNU-638); assay: SRB cytotoxicity evaluation, SNU-638; type: cell-based; conditions: 3 days culture
Procedure: as §1, §2, §3

[7] = test system: human central nervous system tumor cell line (XF498); assay: SRB cytotoxicity evaluation, XF498; type: cell-based; conditions: for IC50: SRB, XF498
Procedure: as §1, §3, §4

[8] = test system: human lung cancer cell line (A549); assay: SRB cytotoxicity evaluation, A549; type: cell-based; conditions: for IC50: SRB, A549
Procedure: as §1, §3, §4

[9] = test system: human colon cancer cell line (HCT15); assay: SRB cytotoxicity evaluation, HCT15; type: cell-based
Procedure: as §1, §3, §4

[10] = test system: human ovarian cancer cell line (SK-OV-3); assay: SRB cytotoxicity evaluation, SK-OV-3; type: cell-based; conditions: for IC50: SRB, SK-OV-3
Procedure: as §1, §3, §4

[11] = comparison among tested compounds, in words

Row | SMILES | IC50 ([2]; Homo sapiens, 72 h) | IC50 ([3]; Homo sapiens, 72 h) | IC50 ([4]; Homo sapiens) | IC50 ([5]; Homo sapiens, HT-1080, 72 h) | IC50 ([6]; Homo sapiens, 72 h) | IC50 ([7]; Homo sapiens) | IC50 ([8]; Homo sapiens) | IC50 ([9]; Homo sapiens, HCT-15) | IC50 ([10]; Homo sapiens) | other results
1 | Cc1nc2c(n1-c1ccc(Br)cc1)C(=O)c1nccnc1C2=O [2-methyl-4,9-dehydro-1-(4-bromophenyl)-1H-imidazo[4,5-g]-quinoxaline-4,9-dione] |  |  |  |  |  |  |  |  |  | cytotoxicity compared with cisplatin or doxorubicin [1]: higher than that of cisplatin or doxorubicin
2 | COc1cccc2c1C(=O)c1c(O)c3c(c(O)c1C2=O)C[C@@](O)(C(=O)CO)C[C@@H]3O[C@H]1C[C@H](N)[C@H](O)[C@H](C)O1 [Doxorubicin, reference compound] | 98 nM | 44 nM | 19 nM | 22 nM | 52 nM | 44 nM | 22 nM | 251 nM | 41 nM | 
3 | Cc1c2ccncc2c(C)c2c1[nH]c1ccccc12 [Ellipticin, reference compound] |  |  |  |  |  |  |  |  |  | IC50 [2]: 2620 nM; IC50 [3]: 3370 nM; IC50 [4]: 2410 nM; IC50 [5]: 1930 nM; IC50 [6]: 2990 nM; IC50 [7]: 3640 nM; IC50 [8]: 1320 nM; IC50 [9]: 3720 nM; IC50 [10]: 1470 nM
4 | COc1ccc(Cn2nnc3c2C(=O)c2cnncc2C3=O)cc1 [Example 1a, 1-(4-methoxybenzyl)-1H-[1,2,3]triazolo[4,5-g]phthalazin-4,9-dione] | 2380 nM | 130 nM | 41 nM | 330 nM | 257 nM | 118 nM | 54 nM | 59 nM | 12 nM | 
5 | O=C1c2cnncc2C(=O)c2[nH]nnc21 [Example 1b, 1H-[1,2,3]triazolo[4,5-g]phthalazin-4,9-dione] | > 5000 nM | > 5000 nM | > 10000 nM | > 5000 nM | > 5000 nM | > 10000 nM | 9020 nM | > 10000 nM | 7640 nM | 
6 | Cn1nnc2c1C(=O)c1cnncc1C2=O [Example 2a, 1-methyl-1H-[1,2,3]triazolo[4,5-g]phthalazin-4,9-dione] | 311 nM | 82 nM | 8 nM | 73 nM | 241 nM | 35 nM | 4 nM | 103 nM | 3 nM | 
7 | Cn1nc2c(n1)C(=O)c1cnncc1C2=O [Example 2b, 2-methyl-2H-[1,2,3]triazolo[4,5-g]phthalazin-4,9-dione] | 132 nM | 124 nM | 2 nM | 7.8 nM | 54 nM | 4 nM | 2 nM | 20 nM | 0.4 nM | cytotoxicity rank against SK-MEL-2 [4, 11]: highest cytotoxicity; cytotoxicity rank against HT1080 [5, 11]: highest cytotoxicity; cytotoxicity rank against XF498 [7, 11]: highest cytotoxicity; cytotoxicity rank against A549 [8, 11]: highest cytotoxicity; cytotoxicity rank against SK-OV-3 [10, 11]: highest cytotoxicity
8 | CCn1nnc2c1C(=O)c1cnncc1C2=O [Example 3a, 1-ethyl-1H-[1,2,3]triazolo[4,5-g]phthalazin-4,9-dione] | 341 nM | 56 nM | 8 nM | 68 nM | 126 nM | 34 nM | 6 nM | 39 nM | 3 nM | 
9 | CCn1nc2c(n1)C(=O)c1cnncc1C2=O [Example 3b, 2-ethyl-2H-[1,2,3]triazolo[4,5-g]phthalazin-4,9-dione] | 170 nM | 90 nM | 4 nM | 204 nM | 46 nM | 17 nM | 18 nM | 18 nM | 3 nM | 
10 | CCCn1nnc2c1C(=O)c1cnncc1C2=O [Example 4a, 1-n-propyl-1H-[1,2,3]triazolo[4,5-g]phthalazin-4,9-dione] | 353 nM | 83 nM | 20 nM | 75 nM | 212 nM | 85 nM | 26 nM | 176 nM | 14 nM | 
11 | CCCn1nc2c(n1)C(=O)c1cnncc1C2=O [Example 4b, 2-n-propyl-2H-[1,2,3]triazolo[4,5-g]phthalazin-4,9-dione] | 57 nM | 157 nM | 9 nM | 33 nM | 43 nM | 18 nM | 19 nM | 18 nM | 9 nM | 
12 | CCCCn1nnc2c1C(=O)c1cnncc1C2=O [Example 5a, 1-n-butyl-1H-[1,2,3]triazolo[4,5-g]phthalazin-4,9-dione] | 421 nM | 89 nM | 23 nM | 99 nM | 155 nM | 181 nM | 81 nM | 177 nM | 21 nM | 
13 | CCCCn1nc2c(n1)C(=O)c1cnncc1C2=O [Example 5b, 2-n-butyl-2H-[1,2,3]triazolo[4,5-g]phthalazin-4,9-dione] | 66 nM | 151 nM | 15 nM | 30 nM | 50 nM | 19 nM | 18 nM | 18 nM | 17 nM | 
